Consider one compound from ChEMBL document CHEMBL2311489 (Eur J Med Chem, 2013).

Structures are written as SMILES. Active and inactive are the calls of the source. No cut-off for these calls is given here.

As usually defined, the inhibition is the drop in the measured response relative to a control, in per cent. The Ki is a dissociation constant, usually derived from enzyme kinetics or from competition with a known ligand. As usually defined, the EC50 is the concentration needed to bring the measured effect to its halfway point. The term IC50 denotes the concentration at which inhibition is half-maximal. In general, inhibition in vivo refers to the share of the control response that was lost under treatment.

Data set [1] relates to Mus musculus. Nature of the data set: Antipsychotic activity in CD1 mouse assessed as inhibition MK-801-evoked hyperactivity at 2.5 to 20 mg/kg, ip after 30 mins. The format is functional, organism-based.
In data set [2] the target is T1, Adrenergic receptor alpha-1 (Rattus norvegicus, UniProt P15823+P23944+P43140).
T1 sequence (P15823 whole entry): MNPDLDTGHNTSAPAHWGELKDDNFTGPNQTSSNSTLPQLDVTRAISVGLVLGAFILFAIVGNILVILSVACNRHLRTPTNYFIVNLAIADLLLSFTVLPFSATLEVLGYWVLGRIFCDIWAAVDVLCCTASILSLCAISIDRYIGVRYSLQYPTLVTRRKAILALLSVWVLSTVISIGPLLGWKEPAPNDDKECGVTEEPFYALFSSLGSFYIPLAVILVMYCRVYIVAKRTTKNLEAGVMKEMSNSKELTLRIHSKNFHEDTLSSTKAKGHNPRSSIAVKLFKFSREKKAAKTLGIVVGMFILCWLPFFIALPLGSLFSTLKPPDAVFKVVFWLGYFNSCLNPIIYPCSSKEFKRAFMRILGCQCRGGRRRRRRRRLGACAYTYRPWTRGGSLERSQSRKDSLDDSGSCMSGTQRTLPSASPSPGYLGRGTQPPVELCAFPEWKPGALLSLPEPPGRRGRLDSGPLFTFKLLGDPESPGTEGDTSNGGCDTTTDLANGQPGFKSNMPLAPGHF
T1 sequence (P23944 whole entry): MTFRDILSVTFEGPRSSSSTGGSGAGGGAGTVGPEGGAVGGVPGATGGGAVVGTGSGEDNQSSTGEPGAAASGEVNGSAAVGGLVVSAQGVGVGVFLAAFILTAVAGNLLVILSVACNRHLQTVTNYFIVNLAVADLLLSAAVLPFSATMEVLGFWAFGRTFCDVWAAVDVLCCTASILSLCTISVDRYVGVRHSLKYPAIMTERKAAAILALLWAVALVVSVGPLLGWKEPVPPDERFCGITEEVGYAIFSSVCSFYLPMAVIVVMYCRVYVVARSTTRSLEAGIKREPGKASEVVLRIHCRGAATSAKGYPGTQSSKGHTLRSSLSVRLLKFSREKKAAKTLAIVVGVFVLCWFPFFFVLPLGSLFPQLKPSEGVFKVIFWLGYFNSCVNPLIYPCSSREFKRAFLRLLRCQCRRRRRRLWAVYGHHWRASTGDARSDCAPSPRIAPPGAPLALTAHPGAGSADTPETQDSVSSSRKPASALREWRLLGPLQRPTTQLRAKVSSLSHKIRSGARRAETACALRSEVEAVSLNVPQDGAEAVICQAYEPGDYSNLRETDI
T1 sequence (P43140 whole entry): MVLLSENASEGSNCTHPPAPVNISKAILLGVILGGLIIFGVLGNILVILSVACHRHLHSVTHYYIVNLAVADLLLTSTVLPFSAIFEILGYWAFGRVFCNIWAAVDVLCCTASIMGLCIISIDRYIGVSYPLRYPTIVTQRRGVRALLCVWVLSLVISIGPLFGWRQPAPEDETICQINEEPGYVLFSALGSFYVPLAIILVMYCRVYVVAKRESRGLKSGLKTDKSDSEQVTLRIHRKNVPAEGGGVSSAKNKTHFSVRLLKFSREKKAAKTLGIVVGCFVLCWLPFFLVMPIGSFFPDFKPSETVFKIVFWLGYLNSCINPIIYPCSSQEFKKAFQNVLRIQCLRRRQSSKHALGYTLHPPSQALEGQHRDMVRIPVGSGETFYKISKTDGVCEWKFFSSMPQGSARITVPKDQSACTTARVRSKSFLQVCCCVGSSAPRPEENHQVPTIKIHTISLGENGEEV
Description: Displacement of [3H]-Prazosin from adrenergic alpha1 receptor in rat cortex after 30 mins by scintillation counting

The target of data set [3] is D(3) dopamine receptor (Homo sapiens) (UniProt P35462). Briefly: Displacement of [3H]-methylspiperone from human dopamine D3 receptor expressed in HEK293 at 10^-6 M after 1 hr. The class given is cell-based.
For data set [4], the target named is T2, 5-hydroxytryptamine receptor 1A (Homo sapiens, UniProt P08908).
T2 sequence (P08908 whole entry): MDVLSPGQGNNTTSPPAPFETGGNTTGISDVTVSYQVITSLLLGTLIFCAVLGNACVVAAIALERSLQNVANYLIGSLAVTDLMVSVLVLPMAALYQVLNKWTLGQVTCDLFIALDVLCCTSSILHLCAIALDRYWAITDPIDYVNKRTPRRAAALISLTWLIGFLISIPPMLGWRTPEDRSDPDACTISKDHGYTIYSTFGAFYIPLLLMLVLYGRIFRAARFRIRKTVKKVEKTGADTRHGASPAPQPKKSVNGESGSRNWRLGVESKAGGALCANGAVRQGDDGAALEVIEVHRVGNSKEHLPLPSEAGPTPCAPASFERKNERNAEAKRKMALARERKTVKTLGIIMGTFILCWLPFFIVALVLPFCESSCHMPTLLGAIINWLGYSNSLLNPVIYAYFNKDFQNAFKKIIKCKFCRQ
Description: Agonist activity at human 5HT1A receptor expressed in CHO cells assessed as cAMP accumulation

Data set [5] has as its target T3, 5-hydroxytryptamine receptor 7 (Homo sapiens, UniProt P34969).
For data set [6], the target named is D(3) dopamine receptor (Homo sapiens) (UniProt P35462). Nature of the data set: Displacement of [3H]-methylspiperone from human dopamine D3 receptor expressed in HEK293 at 10^-7 M after 1 hr. The class given is cell-based. A general note: In a radioligand displacement assay an active substance lowers the binding of a labelled ligand.
Data set [7] concerns the target Sodium-dependent serotonin transporter (Rattus norvegicus, UniProt P31652). Nature of the data set: biochemical.
Data set [8] deals with Mus musculus. Nature of the data set: Toxicity in Swiss albino mouse assessed as locomotor activity at 5 to 20 mg/kg, ip measured after 2 to 6 mins. The class given is organism-based. Also noted: route intraperitoneal. Conditions: in vivo.
Data set [9] relates to Mus musculus. Nature of the data set: Antidepressant activity in Swiss albino mouse assessed as reduction of immobility time at 20 mg/kg, ip measured during last 4 mins of a 6 mins test session by forced swim test. The class given is functional. More on the design: scale not given: the % may be the effect or the level left. Conditions: route intraperitoneal.
Data set [10] has as its system Mus musculus. Briefly: Antipsychotic activity in Swiss albino mouse assessed as inhibition of apomorphine-induced climbing behavior at 1.25 mg/kg, ip administered 10 mins before apomorphine-challenge measured after 2 mins. The format is functional. Conditions: route intraperitoneal.
Data set [11] addresses 5-hydroxytryptamine receptor 6 (Homo sapiens, UniProt P50406).
Description: Displacement of [3H]-LSD from human 5HT6 receptor expressed in HEK293 after 1 hr
Another data set deals with D(2) dopamine receptor (Homo sapiens, UniProt P14416). Briefly: biochemical. The format is cell-based, HEK293.
For data set [12], the target named is T2, 5-hydroxytryptamine receptor 1A. This is another data set of the same source.
Data set [13] is filed under the species Mus musculus. Nature of the data set: animal or person. Conditions: Swiss albino, ip, 20 min, read-out: ID50.
Description: Antipsychotic activity in ip dosed Swiss albino mouse assessed as inhibition of (+/-)DOI-induced head twitch response after 20 mins
Data set [14] concerns Mus musculus. Briefly: Antidepressant activity in Swiss albino mouse assessed as reduction of immobility time at 10 mg/kg, ip measured during last 4 mins of a 6 mins test session by forced swim test. The format is functional. Also noted: scale not given: the % may be the effect or the level left. Conditions: route intraperitoneal.
For data set [15], the target named is 5-hydroxytryptamine receptor 2A (Homo sapiens, UniProt P28223). Nature of the data set: biochemical.
Description: Displacement of [3H]-ketanserin from human 5HT2A receptor expressed in HEK293 after 1.5 hrs
The species entered for data set [16] is Mus musculus. Briefly: animal or person. Conditions: Swiss albino, ip, read-out: ID50.
Description: Antipsychotic activity in ip dosed Swiss albino mouse assessed as inhibition of apomorphine-induced climbing behavior administered 10 mins before apomorphine-challenge measured after 2 mins
The subject of data set [17] is Mus musculus. Nature of the data set: Antidepressant activity in Swiss albino mouse assessed as reduction of immobility time at 5 mg/kg, ip measured during last 4 mins of a 6 mins test session by forced swim test. More on the design: scale not given: the % may be the effect or the level left. The format is functional. Conditions: route intraperitoneal.
The target of data set [18] is T3, 5-hydroxytryptamine receptor 7. This is another data set of the same source.

T3 sequence (P34969 whole entry): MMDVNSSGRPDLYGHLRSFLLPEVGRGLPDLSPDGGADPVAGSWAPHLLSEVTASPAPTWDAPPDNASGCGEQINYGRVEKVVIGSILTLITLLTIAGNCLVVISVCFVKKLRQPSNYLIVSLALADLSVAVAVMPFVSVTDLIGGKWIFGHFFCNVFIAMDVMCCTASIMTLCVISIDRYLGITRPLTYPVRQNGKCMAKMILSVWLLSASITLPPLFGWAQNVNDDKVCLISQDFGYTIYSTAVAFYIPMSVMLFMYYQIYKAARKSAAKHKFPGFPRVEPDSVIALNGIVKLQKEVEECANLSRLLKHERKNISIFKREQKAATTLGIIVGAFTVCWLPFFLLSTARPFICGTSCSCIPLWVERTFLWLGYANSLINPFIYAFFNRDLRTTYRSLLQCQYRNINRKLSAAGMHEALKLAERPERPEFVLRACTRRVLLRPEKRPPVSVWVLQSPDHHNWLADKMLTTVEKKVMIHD
D(3) dopamine receptor (Homo sapiens), sequence (P35462 whole entry): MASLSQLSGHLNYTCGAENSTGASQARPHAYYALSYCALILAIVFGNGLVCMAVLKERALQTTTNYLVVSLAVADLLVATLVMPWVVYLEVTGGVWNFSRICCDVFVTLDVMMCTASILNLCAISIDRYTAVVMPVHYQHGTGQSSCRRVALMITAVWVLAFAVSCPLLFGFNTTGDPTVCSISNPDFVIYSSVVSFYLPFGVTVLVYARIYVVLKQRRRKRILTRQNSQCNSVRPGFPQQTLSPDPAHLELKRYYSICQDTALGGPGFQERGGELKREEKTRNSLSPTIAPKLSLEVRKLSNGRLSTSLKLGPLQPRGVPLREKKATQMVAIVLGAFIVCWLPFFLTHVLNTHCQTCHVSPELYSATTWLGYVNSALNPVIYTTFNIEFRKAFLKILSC
D(2) dopamine receptor, sequence (P14416 whole entry): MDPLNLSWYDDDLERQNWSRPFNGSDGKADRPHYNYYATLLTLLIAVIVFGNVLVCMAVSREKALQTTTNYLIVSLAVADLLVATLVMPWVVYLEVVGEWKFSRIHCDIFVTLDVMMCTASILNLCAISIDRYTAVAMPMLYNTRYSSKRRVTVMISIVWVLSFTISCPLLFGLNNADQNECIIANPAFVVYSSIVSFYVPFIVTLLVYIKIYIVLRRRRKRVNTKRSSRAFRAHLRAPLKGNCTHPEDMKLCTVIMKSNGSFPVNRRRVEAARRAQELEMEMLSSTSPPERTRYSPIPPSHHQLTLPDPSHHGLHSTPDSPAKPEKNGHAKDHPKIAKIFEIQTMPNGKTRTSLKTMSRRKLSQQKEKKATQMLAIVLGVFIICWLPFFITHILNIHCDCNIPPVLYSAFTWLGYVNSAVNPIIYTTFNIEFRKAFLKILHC
5-hydroxytryptamine receptor 6, sequence (P50406 whole entry): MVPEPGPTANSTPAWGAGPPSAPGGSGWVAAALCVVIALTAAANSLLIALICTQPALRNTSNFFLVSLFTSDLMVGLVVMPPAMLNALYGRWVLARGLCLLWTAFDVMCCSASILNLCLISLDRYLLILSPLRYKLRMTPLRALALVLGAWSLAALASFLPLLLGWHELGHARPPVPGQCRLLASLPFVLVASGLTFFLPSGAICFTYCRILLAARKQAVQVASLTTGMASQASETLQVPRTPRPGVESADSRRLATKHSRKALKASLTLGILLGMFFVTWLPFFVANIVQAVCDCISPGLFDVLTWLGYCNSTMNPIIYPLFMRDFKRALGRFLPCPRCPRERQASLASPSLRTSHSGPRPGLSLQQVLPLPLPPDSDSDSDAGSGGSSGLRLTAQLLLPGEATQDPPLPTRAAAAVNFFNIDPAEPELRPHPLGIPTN
Sodium-dependent serotonin transporter, sequence (P31652 whole entry): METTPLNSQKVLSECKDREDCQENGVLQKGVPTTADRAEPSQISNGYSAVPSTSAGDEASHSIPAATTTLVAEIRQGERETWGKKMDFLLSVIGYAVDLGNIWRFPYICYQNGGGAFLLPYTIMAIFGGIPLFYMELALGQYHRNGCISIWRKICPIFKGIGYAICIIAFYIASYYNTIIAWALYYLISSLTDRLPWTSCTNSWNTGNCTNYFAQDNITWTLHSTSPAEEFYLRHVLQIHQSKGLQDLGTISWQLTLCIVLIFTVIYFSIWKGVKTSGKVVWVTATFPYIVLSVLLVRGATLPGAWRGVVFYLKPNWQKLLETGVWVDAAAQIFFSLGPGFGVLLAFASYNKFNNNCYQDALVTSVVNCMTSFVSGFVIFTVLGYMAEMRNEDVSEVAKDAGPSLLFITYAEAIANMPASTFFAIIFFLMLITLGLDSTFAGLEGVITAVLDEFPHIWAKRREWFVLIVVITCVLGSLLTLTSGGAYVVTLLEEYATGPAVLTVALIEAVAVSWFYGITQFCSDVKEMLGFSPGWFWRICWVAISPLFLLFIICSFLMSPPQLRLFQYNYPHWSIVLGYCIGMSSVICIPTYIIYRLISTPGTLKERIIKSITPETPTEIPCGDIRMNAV
5-hydroxytryptamine receptor 2A, sequence (P28223 whole entry): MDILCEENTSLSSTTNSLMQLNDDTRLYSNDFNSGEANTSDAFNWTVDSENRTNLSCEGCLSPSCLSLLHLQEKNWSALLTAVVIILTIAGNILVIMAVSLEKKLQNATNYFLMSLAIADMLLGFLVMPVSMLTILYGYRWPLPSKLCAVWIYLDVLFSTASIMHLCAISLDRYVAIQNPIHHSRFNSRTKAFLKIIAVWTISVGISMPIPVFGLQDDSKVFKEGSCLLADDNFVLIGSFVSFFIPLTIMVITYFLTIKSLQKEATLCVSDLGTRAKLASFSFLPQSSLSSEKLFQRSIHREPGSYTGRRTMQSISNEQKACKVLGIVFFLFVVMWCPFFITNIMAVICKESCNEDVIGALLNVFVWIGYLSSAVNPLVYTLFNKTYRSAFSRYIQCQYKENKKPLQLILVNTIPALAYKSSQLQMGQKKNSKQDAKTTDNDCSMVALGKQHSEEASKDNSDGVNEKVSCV
Description for D(2) dopamine receptor: Displacement of [3H]-raclopride from human dopamine D2L receptor expressed in HEK293 after 1 hr

On to `O=S(=O)(NCCCCN1CCN(c2cccc(Cl)c2Cl)CC1)c1cc2ccccc2cn1`, for which the inhibition entry in the data set with Mus musculus [1] is “inactive”. Moreover, the inhibition constant Ki in [2] came to 255 nM; in data set [7], 335 nM; in data set [11] it was 454 nM; at D(2) dopamine receptor, 17 nM; in [12] it was 34 nM; in data set [15] it was 35 nM. Besides, the affinity in data set [18] corresponds to a Ki of 56 nM. Also, the inhibition in data set [3] was determined as 98%; in data set [6], 95%. In [4], this compound returned an EC50 of 15.5 µM. The same compound returned an IC50 in data set [5] of 5.6 µM. Further, the Activity result is recorded as “Non-toxic” in the data set on Mus musculus [8], 83% in the data set with Mus musculus [9], 53% in the data set with Mus musculus [14] and 43% in the data set on Mus musculus [17]. Moreover, the inhibition in vivo at 1.25 mg/kg in the data set with Mus musculus [10] stood at 49.1%. Further, the ED50 in the data set filed under Mus musculus [13] was determined as 9.03 mg/kg; in the data set listed under Mus musculus [16], 19.9 mg/kg.
